Results published in patent publication US6284918A, “Selective inhibitors of prostaglandin endoperoxide synthase-2” (priority 1999, dated 2001).
Like-named read-outs stand apart in the source and are kept apart here.

How the values were obtained:
ovine PGHS-1 = target: T1, ovine PGHS-1 (Ovis aries, UniProt P05979); experiment: Time- and concentration-dependent inhibition of ovine PGHS-1, TLC assay (3 h preincubation); type: biochemical; conditions: for inhibition of PGHS-1 (in words): table footnotes
T1 construct: PGHS-1 was purified from sheep seminal vesicles as described earlier; tissue Oxford Biomedical Research, Inc. (supplier of the sheep seminal vesicles); host or cells: sheep seminal vesicles
T1 sequence (P05979 25-600): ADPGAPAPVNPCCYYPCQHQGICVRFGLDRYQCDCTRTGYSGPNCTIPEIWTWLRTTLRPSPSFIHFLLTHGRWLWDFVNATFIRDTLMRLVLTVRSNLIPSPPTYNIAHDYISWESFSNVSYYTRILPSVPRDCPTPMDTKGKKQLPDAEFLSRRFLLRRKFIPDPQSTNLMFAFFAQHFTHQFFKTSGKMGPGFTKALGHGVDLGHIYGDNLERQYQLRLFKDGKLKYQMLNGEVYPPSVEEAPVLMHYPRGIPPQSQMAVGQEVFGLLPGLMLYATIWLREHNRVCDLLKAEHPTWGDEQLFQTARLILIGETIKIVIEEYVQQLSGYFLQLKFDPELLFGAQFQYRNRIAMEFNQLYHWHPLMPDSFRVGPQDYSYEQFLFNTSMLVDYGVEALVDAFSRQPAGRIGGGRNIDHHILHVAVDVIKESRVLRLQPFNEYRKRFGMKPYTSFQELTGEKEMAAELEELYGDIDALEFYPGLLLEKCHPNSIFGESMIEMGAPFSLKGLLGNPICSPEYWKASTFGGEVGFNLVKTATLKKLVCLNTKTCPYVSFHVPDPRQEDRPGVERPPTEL
Experimental: (§1) Cyclooxygenase activity of ovine PGHS-1 (22 nM) or human PGHS-2 (88 nM) was assayed by TLC. Reaction mixtures of 200 μL consisted of hematin-reconstituted protein in 100 mM Tris-HCl, pH 8.0, 500 μM phenol, and [1-^14 C]arachidonic acid (50 μM, 57 mCi/mmol). For the time-dependent inhibition assay, hematin-reconstituted PGHS-1 (22 nM) or PGHS-2 (88 nM) was preincubated at room temperature for 2 hours and then at 0° C. for 1 hour with varying concentrations of inhibitor in DMSO followed by the addition of [1-^14 C]arachidonic acid (50 μM) for 30 seconds at 37° C. Reactions were terminated by solvent extraction in diethyl ether/methanol/1 M citrate, pH 4.0 (30:4:1). The organic phase was spotted on a TLC plate (Amersham Corp.). The plate was developed with ethyl acetate/methylene chloride/glacial acetic acid (75:25:1) at 4° C. Radiolabeled products were quantitated with a radioactivity scanner (Bioscan, Inc., Washington, D.C.).
(§2) conducted at room temperature for 3 hours. The cyclooxygenase reaction was
(§3) initiated by the addition of 14C-arachidonic acid (50 μM) to the
(§4) incubation mixtures at 37 C for 30 seconds.
(§5) conducted at room temperature for 3 hours. The cyclooygenase reaction was
(§6) initiated by the addition of ^14 C-arachidonic acid ([…]) to the
(§7) incubation mixtures at 37° C. for 30 sec.

human PGHS-2 = target: T2, human PGHS-2 (Homo sapiens, UniProt P35354); experiment: Time- and concentration-dependent inhibition of human PGHS-2, TLC assay (3 h preincubation); type: biochemical; conditions: for IC50: PGHS-2 88 nM; for inhibition of PGHS-2 (in words): table footnotes; for IC50 (PGHS-1)/IC50 (PGHS-2): selectivity ratio, 180 min
T2 construct: made in house; host or cells: insect cells (baculovirus vectors)
T2 sequence (P35354 18-604): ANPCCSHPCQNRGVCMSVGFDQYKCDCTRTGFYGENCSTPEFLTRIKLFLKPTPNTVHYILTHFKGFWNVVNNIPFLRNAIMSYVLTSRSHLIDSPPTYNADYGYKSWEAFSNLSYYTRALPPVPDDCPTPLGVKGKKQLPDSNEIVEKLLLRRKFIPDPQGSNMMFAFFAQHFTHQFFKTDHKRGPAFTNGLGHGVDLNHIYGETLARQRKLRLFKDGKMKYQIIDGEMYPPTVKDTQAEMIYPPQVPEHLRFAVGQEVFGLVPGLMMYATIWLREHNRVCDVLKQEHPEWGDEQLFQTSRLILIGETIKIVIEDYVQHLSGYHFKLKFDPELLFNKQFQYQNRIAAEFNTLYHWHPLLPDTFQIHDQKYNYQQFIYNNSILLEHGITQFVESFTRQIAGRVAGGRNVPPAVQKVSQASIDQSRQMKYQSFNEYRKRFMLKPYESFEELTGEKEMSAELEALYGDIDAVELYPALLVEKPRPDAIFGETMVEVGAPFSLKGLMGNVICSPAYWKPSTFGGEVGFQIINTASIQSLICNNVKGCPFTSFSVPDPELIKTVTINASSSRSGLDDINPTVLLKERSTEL
Experimental: as §1, §2, §3, §4, §5, §6, §7

oCOX-1 = target: T3, oCOX-1 (Ovis aries, UniProt P05979); experiment: Time- and concentration-dependent inhibition of oCOX-1 (1 h incubation); type: biochemical, ovine
T3 construct: PGHS-1 was purified from sheep seminal vesicles as described earlier; tissue Oxford Biomedical Research, Inc. (supplier of the sheep seminal vesicles); host or cells: sheep seminal vesicles
T3 sequence (P05979 25-600): T1 sequence (P05979 25-600)
Experimental: (§8) ^a IC50 values were determined by incubating several inhibitor
(§9) concentrations in DMSO with purified hCOX-2 or oCOX-1 for 1 h at rt;
(§10) assays were run in duplicate. IC50 values are average of duplicate
(§11) determinations for each test compounds.

hCOX-2 = target: T4, hCOX-2 (Homo sapiens, UniProt P35354); experiment: Time- and concentration-dependent inhibition of hCOX-2 (1 h incubation); type: biochemical
T4 construct: made in house; host or cells: insect cells (baculovirus vectors)
T4 sequence (P35354 18-604): T2 sequence (P35354 18-604)
Experimental: as §8, §9, §10, §11

[1] = Table 2, 3 h at room temperature
[2] = Table 2, PGHS-1 22 nM, 3 h at room temperature
[3] = Table 3, 1 h at rt, average of duplicates, read-out: IC50 oCOX-1
[4] = Table 3, 1 h at rt, average of duplicates, read-out: IC50 hCOX-2
[5] = Table 1, 3 h at room temperature, 50 μM 14C-arachidonic acid
[6] = Table 1, 22 nM enzyme, 3 h at room temperature, 50 μM 14C-arachidonic acid

SMILES: CC(=O)Oc1ccccc1SCCCCCCCC(=O)O [Compound 63, 2-Acetoxyphenyl-8-carboxyheptyl sulfide]
- IC50 (ovine PGHS-1; Table 1, cell printed in mM): > 1 mM

SMILES: CCOCCCSc1ccccc1OC(C)=O [Compound 71, 2-Acetoxyphenyl-3-ethoxypropyl sulfide]
- inhibition of cyclooxygenase activity of human holoPGHS-2 (in words) (human PGHS-2; FIG. 11, 8 μM (compound 67)): very little effect
- IC50 (human PGHS-2; [1]): > 33 µM
- IC50 (ovine PGHS-1; [2]): > 0.033 mM

SMILES: CCCCCC#CCSc1ccccc1OC(C)=O [Compound 109, 2-Acetoxyphenyloct-2-ynyl sulfide]
- IC50 (oCOX-1; [3]): 33 µM
- IC50 (hCOX-2; [4]): 7 µM

SMILES: CCCCCCCS(=O)(=O)c1ccccc1OC(C)=O [Compound 93, 2-Acetoxyphenylheptyl sulfone]
- inhibition of PGHS-2 (in words) (human PGHS-2): very poor inhibitor
- inhibition of PGHS-1 (in words) (ovine PGHS-1): very poor inhibitor

SMILES: CCCCCCCCCSc1ccccc1OC(C)=O [Compound 56, 2-Acetoxyphenylnonyl sulfide]
- IC50 (human PGHS-2; [1]): > 33 µM
- IC50 (ovine PGHS-1; [2]): > 0.033 mM

SMILES: CCCC#CCCSc1ccccc1OC(C)=O [Compound 115, 2-Acetoxyephenylhept-3-ynyl sulfide]
- IC50 (oCOX-1; [3]): 18 µM
- IC50 (hCOX-2; [4]): 6.5 µM

SMILES: CC(=O)Oc1ccccc1SC1CCCCCC1 [Compound 58, 2-Acetoxyphenylcycloheptyl sulfide]
- IC50 (human PGHS-2; [1]): > 33 µM
- IC50 (ovine PGHS-1; [2]): > 0.033 mM

SMILES: CCSc1ccccc1OC(C)=O [Compound 49, 2-Acetoxyphenylethyl sulfide]
- IC50 (human PGHS-2; [1]): 200 µM
- IC50 (PGHS-1)/IC50 (PGHS-2) (human PGHS-2; Table 2): 1.8
- IC50 (ovine PGHS-1; [2]): 0.375 mM

SMILES: CCCCCCCSc1ccccc1O [Compound 38, 2-Hydroxyphenylheptyl sulfide]
- inhibition of cyclooxygenase activity of human holoPGHS-2 (in words) (human PGHS-2; FIG. 9, 3 h at room temperature): very little effect
- inhibition of PGHS-2 (in words) (human PGHS-2): did not inhibit
- inhibition of PGHS-1 (in words) (ovine PGHS-1): did not inhibit

SMILES: CCCCC#CCSc1ccccc1OC(=O)CBr [Compound 123, 2-(α-bromoacetoxy)phenylhept-2-ynyl sulfide]
- IC50 (oCOX-1; [3]): 20 µM
- IC50 (hCOX-2; [4]): 26 µM

SMILES: CCCCOCCSc1ccccc1OC(C)=O [Compound 67, 2-Acetoxyphenyl-2-butoxyethyl sulfide]
- inhibition of cyclooxygenase activity of human holoPGHS-2 (in words) (human PGHS-2; FIG. 11, 8 μM (compound 67)): greatly inhibited
- IC50 (human PGHS-2; [1]): 7 µM
- IC50 (PGHS-1)/IC50 (PGHS-2) (human PGHS-2; Table 2): 3
- IC50 (ovine PGHS-1; [2]): 0.022 mM

SMILES: CCCC/C=C/CSc1ccccc1OC(C)=O [Compound 75, 2-Acetoxyphenyl-trans-hept-2-enyl sulfide]
- IC50 (ovine PGHS-1; [2]): > 0.0165 mM
- inhibition at 16.5 µM (ovine PGHS-1; at 16.5 μM): ~25%

SMILES: CCCCCCSc1ccccc1OC(C)=O [Compound 53, 2-Acetoxyphenylhexyl sulfide]
- IC50 (human PGHS-2; [1]): 3.5 µM
- IC50 (PGHS-1)/IC50 (PGHS-2) (human PGHS-2; Table 2): 2.3
- IC50 (ovine PGHS-1; [2]): 0.008 mM

SMILES: CC(=O)Oc1ccccc1SCCc1ccccc1 [Compound 60, 2-Acetoxyphenyl-2-phenylethyl sulfide]
- IC50 (human PGHS-2; [5]): 100 µM

SMILES: CSc1ccccc1OC(=O)CCl [Compound 7, 2-(α-chloroacetoxy)thioanisole]
- IC50 (human PGHS-2; [5]): 360 µM
- IC50 (ovine PGHS-1; [6]): 0.39 mM

SMILES: CCCSc1ccccc1OC(C)=O [Compound 50, 2-Acetoxyphenylpropyl sulfide]
- IC50 (human PGHS-2; [1]): 66 µM
- IC50 (PGHS-1)/IC50 (PGHS-2) (human PGHS-2; Table 2): 1.0
- IC50 (ovine PGHS-1; [2]): 0.066 mM

SMILES: CCCCCCCCSc1ccccc1OC(C)=O [Compound 55, 2-Acetoxyphenyloctyl sulfide]
- IC50 (human PGHS-2; [1]): > 33 µM
- IC50 (ovine PGHS-1; [2]): > 0.033 mM

SMILES: C#CCSc1ccccc1OC(C)=O [Compound 91, 2-Acetoxyphenyl-prop-2-ynyl sulfide]
- IC50 (human PGHS-2; [1]): 25 µM
- IC50 (PGHS-1)/IC50 (PGHS-2) (human PGHS-2; Table 2): 1.6
- IC50 (ovine PGHS-1; [2]): 0.04 mM

SMILES: CC(=O)Oc1ccccc1SC1CCCCC1 [Compound 57, 2-Acetoxyphenylcyclohexyl sulfide]
- IC50 (human PGHS-2; [1]): > 33 µM
- IC50 (ovine PGHS-1; [2]): > 0.033 mM

SMILES: CCCC#CCSc1ccccc1OC(C)=O [Compound 88, 2-Acetoxyphenylhex-2-ynyl sulfide]
- inhibition of cyclooxygenase activity of human holoPGHS-2 (in words) (human PGHS-2; FIGS. 12 and 13, 1-16 μM): greatly inhibited
- IC50 (human PGHS-2; [1]): 3 µM
- IC50 (PGHS-1)/IC50 (PGHS-2) (human PGHS-2; Table 2): 4.6
- IC50 (ovine PGHS-1; [2]): 0.014 mM

SMILES: CCCCCCC#CCSc1ccccc1OC(C)=O [Compound 110, 2-Acetoxyphenylnon-2-ynyl sulfide]
- IC50 (oCOX-1; [3]): 50 µM
- IC50 (hCOX-2; [4]): 12.5 µM

SMILES: CCCCC#CCSc1ccccc1OC(N)=O [Compound 122, 2-Carbamoyloxyphenylhept-2-ynyl sulfide]
- IC50 (oCOX-1): > 40 µM
- IC50 (hCOX-2): > 40 µM

SMILES: CCCCC#CCSc1ccccc1OS(C)(=O)=O [Compound 124, 2-Methylsulfonyloxyphenylhept-2-ynyl sulfide]
- IC50 (oCOX-1; [3]): > 40 µM
- IC50 (hCOX-2; [4]): > 40 µM

SMILES: CCCCCCCC#CCSc1ccccc1OC(C)=O [Compound 111, 2-Acetoxyphenyldec-2-ynyl sulfide]
- IC50 (oCOX-1; [3]): > 50 µM
- IC50 (hCOX-2; [4]): 16 µM

SMILES: CSc1ccccc1OC(=O)CBr [Compound 8, 2-(α-bromoacetoxy)thioanisole]
- IC50 (human PGHS-2; [5]): 510 µM
- IC50 (ovine PGHS-1; [6]): 0.32 mM

SMILES: CSc1ccccc1OC(=O)C(F)(F)F [Compound 6]
- inhibition at 100 µM (human PGHS-2; FIG. 8, 0.1 mM): ~35%

SMILES: CC#CCSc1ccccc1OC(C)=O [Compound 90, 2-Acetoxyphenyl-but-2-ynyl sulfide]
- IC50 (PGHS-1)/IC50 (PGHS-2) (human PGHS-2; Table 2): > 2
- IC50 (ovine PGHS-1; [2]): > 0.035 mM

SMILES: CCC#CCSc1ccccc1OC(C)=O [Compound 89, 2-Acetoxyphenylpent-2-ynyl sulfide]
- IC50 (human PGHS-2; [1]): 5 µM
- IC50 (PGHS-1)/IC50 (PGHS-2) (human PGHS-2; Table 2): 4
- IC50 (ovine PGHS-1; [2]): 0.02 mM

SMILES: CCCCC#CCSc1ccccc1O [Compound 82, 2-Hydroxyphenyl-hept-2-ynyl sulfide]
- inhibition of cyclooxygenase activity of human holoPGHS-2 (in words) (human PGHS-2; FIGS. 12 and 13, 1-16 μM): very little effect
- inhibition of PGHS-2 (in words) (human PGHS-2): did not inhibit
- inhibition of PGHS-1 (in words) (ovine PGHS-1): did not inhibit

SMILES: CC(=O)Oc1ccccc1SCC(C)C [Compound 51, 2-Acetoxyphenyl-2-methylpropyl sulfide]
- IC50 (human PGHS-2; [1]): 40 µM
- IC50 (PGHS-1)/IC50 (PGHS-2) (human PGHS-2; Table 2): 1.2
- IC50 (ovine PGHS-1; [2]): 0.034 mM
